Read-outs that look alike come from different tables or passages of the source.
Key:
[1] = test system: Akt phosphorylated at Ser473 in PC-3 cells; test: Cellular assay: phosphorylation of Akt (Ser473) in PC-3 cells, MSD ELISA; type: cell-based; settings: 60 min incubation with compound, read-out: IC50 pAkt_S473
Protocol: (§1) Cellular activity of PI3Kβ inhibitors was determined by quantifying the phosphorylation of Akt in PC-3 cells. Akt phosphorylated at Ser473 and Thr308 were measured using an enzyme-linked immunosorbent assay (ELISA; Meso Scale Discovery (MSD), Gaithersburg, Md.) and specific primary antibodies from MSD.
(§2) On day 1, PC3 cells (ATCC # […]) were seeded into PerkinElmer MW96 plates at 25.000 cells per well, in 75 μl complete culture medium (DMEM (Dulbecco's Modified Eagle's Medium) high glucose, AQmedia™, D0819, Sigma-Aldrich) containing 10% heat inactivated FCS (Fetal Bovine Serum) and incubated at 37° C., 5% CO2 during 24 hours. On day 2, compound or DMSO (dimethyl sulfoxide) (0.3%) was added and cells were further incubated for 60 min at 37° C., 5% CO2 in a total volume of 100 μl of medium.
(§3) The phosphoprotein assay was executed according to vendor instructions in the Phospho-Akt (Ser473) Assay Whole Cell Lysate Kit (MSD # K15100D-3) and the Phospho-Akt (Thr308) Assay Whole Cell Lysate Kit (MSD # K151DYD-3) using the lysis, blocking and wash buffer provided.
(§4) Briefly, at the end of the cell treatment period, media were removed by aspiration and adherent cells were lysed in 50 μl ice-cold lysis buffer. MSD plates are supplied pre-coated with capture antibodies for Phospho-Akt (Ser473 and Thr308). After blocking, lysates from tissue culture plates were added and plates were washed. Then, a solution containing the detection antibody (anti-total Akt conjugated with an electrochemiluminescent compound-MSD Sulfo-tag label) was added. The signals were detected using an MSD SECTOR Imager 6000 and are proportional to the phospho-Akt titres.
(§5) Data were processed. The percentage of inhibition was plotted against the log concentration of test compounds, and the sigmoidal log concentration-effect curve of best fit was calculated by nonlinear regression analysis. From these concentration-response curves, the IC50 values were calculated. Five concentrations were used for curve fitting.

MTOR_h = MTOR_h (Homo sapiens (Human), UniProt P42345); test: KINOMEscan enzyme binding assay, MTOR; settings: DiscoveRx
Protocol: (§6) Enzyme Binding Assays (KINOMEscan®) Kinase enzyme binding affinities of compounds disclosed herein were determined using the KINOMEscan technology performed by DiscoveRx Corporation, San Diego, Calif., USA (www.kinomescan.com).

PIK3Cβ_h = PIK3Cβ_h (Homo sapiens (Human), UniProt P42338); test: KINOMEscan enzyme binding assay, PIK3Cβ; settings: DiscoveRx
Chain of PIK3Cβ_h (P42338 whole entry): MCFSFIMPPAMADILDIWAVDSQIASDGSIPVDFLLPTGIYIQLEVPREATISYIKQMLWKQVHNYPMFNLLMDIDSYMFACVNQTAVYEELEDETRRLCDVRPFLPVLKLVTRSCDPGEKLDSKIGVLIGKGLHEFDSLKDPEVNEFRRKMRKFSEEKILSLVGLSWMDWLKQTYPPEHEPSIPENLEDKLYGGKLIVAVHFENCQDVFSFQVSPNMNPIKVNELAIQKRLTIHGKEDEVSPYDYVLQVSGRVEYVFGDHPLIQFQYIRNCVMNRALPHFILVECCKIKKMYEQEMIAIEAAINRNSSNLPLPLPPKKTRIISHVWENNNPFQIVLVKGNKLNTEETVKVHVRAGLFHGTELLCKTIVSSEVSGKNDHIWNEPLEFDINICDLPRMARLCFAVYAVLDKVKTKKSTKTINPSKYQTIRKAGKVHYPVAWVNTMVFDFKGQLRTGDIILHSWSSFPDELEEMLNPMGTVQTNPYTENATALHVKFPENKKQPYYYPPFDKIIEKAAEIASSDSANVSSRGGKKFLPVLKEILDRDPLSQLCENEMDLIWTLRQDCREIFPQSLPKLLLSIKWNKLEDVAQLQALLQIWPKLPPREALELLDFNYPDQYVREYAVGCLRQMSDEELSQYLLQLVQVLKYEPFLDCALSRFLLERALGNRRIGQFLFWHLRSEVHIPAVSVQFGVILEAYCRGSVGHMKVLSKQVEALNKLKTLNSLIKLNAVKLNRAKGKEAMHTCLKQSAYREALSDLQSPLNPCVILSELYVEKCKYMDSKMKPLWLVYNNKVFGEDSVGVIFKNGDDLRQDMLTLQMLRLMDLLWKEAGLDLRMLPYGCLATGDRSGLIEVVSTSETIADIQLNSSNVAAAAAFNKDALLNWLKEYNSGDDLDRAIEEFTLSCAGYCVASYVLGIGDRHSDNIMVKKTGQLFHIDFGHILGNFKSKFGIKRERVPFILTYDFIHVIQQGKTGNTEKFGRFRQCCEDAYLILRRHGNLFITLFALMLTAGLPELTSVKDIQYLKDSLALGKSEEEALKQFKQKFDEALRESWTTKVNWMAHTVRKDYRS
Protocol: as §6, with “(www.kinomescan.com). Table A reports the obtained Kd values (nM), with the Kd being the inhibitor binding constant: […]” for “(www.kinomescan.com).”

PIK3Cδ_h = PIK3Cδ_h (Homo sapiens (Human), UniProt O00329); test: KINOMEscan enzyme binding assay, PIK3Cδ; settings: DiscoveRx
Chain of PIK3Cδ_h (O00329 whole entry): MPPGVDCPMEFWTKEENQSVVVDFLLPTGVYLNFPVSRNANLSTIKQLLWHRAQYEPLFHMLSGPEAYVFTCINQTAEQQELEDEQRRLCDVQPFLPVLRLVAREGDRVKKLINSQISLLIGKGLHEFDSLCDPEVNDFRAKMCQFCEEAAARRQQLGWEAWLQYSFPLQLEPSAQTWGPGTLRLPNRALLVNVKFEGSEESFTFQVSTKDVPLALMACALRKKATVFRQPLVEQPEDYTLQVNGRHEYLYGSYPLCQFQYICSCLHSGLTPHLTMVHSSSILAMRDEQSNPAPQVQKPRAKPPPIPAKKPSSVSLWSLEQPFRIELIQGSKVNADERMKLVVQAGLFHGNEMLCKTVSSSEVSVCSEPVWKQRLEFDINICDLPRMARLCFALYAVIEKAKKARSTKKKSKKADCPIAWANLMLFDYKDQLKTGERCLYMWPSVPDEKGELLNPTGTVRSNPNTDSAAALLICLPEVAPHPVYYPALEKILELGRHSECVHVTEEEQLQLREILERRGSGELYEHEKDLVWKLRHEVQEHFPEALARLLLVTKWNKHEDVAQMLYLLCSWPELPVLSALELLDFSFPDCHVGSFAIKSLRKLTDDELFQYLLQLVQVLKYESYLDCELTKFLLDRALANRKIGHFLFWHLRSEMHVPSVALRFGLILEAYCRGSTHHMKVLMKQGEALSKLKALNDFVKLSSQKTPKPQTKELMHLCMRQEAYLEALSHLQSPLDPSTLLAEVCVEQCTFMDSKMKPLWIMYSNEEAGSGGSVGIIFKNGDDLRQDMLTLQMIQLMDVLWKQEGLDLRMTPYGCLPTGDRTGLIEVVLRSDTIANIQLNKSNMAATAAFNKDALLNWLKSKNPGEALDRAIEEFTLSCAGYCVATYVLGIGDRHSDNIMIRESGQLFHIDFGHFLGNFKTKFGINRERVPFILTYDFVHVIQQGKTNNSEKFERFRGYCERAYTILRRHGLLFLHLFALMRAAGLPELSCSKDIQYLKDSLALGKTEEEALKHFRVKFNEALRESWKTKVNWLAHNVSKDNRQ
Protocol: as §6, with “(www.kinomescan.com). Table A reports the obtained Kd values (nM), with the Kd being the inhibitor binding constant: […]” for “(www.kinomescan.com).”

PIK3Cα_h = PIK3Cα_h (Homo sapiens (Human), UniProt P42336); test: KINOMEscan enzyme binding assay, PIK3Cα; settings: DiscoveRx
Chain of PIK3Cα_h (P42336 whole entry): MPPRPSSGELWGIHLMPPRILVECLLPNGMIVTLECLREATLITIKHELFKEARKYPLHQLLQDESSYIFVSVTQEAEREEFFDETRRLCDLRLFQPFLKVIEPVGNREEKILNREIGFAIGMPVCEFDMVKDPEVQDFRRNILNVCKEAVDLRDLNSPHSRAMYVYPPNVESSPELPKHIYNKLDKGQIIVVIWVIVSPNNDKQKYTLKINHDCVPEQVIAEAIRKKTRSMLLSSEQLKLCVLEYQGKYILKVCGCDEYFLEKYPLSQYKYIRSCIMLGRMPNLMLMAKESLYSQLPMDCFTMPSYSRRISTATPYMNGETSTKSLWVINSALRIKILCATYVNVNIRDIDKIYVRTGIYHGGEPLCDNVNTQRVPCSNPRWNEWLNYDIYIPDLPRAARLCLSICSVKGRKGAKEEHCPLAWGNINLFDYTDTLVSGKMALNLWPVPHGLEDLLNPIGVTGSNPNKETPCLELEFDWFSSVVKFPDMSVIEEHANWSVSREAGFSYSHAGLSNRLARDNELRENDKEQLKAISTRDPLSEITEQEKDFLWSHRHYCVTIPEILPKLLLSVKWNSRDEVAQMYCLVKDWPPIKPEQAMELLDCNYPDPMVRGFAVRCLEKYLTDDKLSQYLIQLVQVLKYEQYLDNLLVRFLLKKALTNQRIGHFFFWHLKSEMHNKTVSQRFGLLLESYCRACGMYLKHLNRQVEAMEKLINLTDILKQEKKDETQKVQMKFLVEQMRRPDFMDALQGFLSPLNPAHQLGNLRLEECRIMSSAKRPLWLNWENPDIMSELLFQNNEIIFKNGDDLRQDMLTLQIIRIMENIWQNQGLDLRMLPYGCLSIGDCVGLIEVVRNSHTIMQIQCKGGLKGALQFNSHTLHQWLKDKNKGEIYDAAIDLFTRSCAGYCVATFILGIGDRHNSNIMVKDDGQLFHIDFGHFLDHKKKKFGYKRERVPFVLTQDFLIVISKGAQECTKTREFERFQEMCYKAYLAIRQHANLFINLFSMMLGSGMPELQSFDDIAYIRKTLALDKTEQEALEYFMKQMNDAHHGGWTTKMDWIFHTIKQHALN
Protocol: as §6

[2] = test system: Akt phosphorylated at Thr308 in PC-3 cells; test: Cellular assay: phosphorylation of Akt (Thr308) in PC-3 cells, MSD ELISA; type: cell-based; settings: 60 min incubation with compound, read-out: IC50 pAkt_Thr308
Protocol: as §1, §2, §3, §4, §5

PIK3Cγ_h = PIK3Cγ_h (Homo sapiens (Human), UniProt P48736); test: KINOMEscan enzyme binding assay, PIK3Cγ; settings: DiscoveRx
Chain of PIK3Cγ_h (P48736 whole entry): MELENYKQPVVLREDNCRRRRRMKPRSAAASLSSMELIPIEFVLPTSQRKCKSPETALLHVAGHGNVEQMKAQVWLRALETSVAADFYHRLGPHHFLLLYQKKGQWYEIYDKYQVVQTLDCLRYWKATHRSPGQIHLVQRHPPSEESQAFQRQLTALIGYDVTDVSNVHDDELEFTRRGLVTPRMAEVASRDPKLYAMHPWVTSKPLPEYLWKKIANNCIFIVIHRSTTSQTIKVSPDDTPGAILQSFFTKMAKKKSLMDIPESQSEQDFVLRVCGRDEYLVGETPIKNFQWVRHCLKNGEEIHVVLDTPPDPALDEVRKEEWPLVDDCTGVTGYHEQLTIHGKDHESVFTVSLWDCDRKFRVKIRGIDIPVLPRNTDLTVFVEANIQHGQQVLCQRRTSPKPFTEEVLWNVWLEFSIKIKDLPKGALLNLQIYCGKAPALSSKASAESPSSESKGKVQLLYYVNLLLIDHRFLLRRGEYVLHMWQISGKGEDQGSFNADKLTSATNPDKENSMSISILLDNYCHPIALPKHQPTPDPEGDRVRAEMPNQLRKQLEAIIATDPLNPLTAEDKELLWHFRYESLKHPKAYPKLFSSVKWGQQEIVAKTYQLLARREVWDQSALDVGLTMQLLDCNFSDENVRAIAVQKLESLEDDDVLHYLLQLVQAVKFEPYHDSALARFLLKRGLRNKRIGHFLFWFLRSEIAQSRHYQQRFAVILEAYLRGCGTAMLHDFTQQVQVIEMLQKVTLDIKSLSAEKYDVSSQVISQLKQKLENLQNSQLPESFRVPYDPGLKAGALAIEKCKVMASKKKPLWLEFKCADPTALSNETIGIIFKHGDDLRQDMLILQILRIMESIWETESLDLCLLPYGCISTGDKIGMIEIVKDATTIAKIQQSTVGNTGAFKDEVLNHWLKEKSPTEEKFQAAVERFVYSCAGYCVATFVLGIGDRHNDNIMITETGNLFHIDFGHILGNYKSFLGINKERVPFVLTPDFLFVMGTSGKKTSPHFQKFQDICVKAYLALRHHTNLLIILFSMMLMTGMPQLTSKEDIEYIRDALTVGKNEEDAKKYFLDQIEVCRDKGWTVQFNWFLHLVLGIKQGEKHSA
Protocol: as §6

IC50 ([1]; Homo sapiens, PC-3, 1 h) [nM] | Kd (MTOR_h) [nM] | Kd (PIK3Cβ_h) [nM] | Kd (PIK3Cδ_h) [nM] | Kd (PIK3Cα_h) [nM] | IC50 ([2]; Homo sapiens, PC-3, 1 h) [nM] | Kd (PIK3Cγ_h) [nM] | IC50 [1] [nM] | IC50 [2] [nM] | SMILES
~316 | 9330 | < 1.5 | 69 | 1070 | ~151 | 6170 |  |  | Cc1cccc(Cc2c(C)nc3c(C(=O)O)cc(N4CCOCC4)nn23)c1C [Compound 12]
> 513 | 8510 | 331 | 13800 | > 30200 | ~309 | 11700 |  |  | Cc1c(Cc2c(CO)nc3c(N)cc(N4CCOC(C)C4)nn23)cccc1C(F)(F)F (stereo not shown) [Compound 26]
34 | 5370 | 1.5 | 105 | 9330 | ~11 | 14800 |  |  | Cc1nc2c(N)cc(N3CCOCC3)nn2c1Nc1cccc(F)c1C [Compound 44]
257 | 5890 | 43 | 219 | 1200 | ~224 | 3630 |  |  | Cc1nc2c(C(N)=O)cc(N3CCOCC3)nn2c1Nc1ccccc1N1CCOCC1 [Compound 87]
11 | 3240 | 2.2 | 214 | 575 | 20 | 759 |  |  | Cc1c(Nc2c(CO)nc3c(C(N)=O)cc(N4CCOCC4)nn23)cccc1C(F)(F)F [Compound 37]
98 | > 30200 | 1.7 | 34 | 2750 | 55 | 6170 |  |  | Cc1nc2c(N)cc(N3CCOCC3)nn2c1Nc1cccc(C(F)(F)F)c1CN1CC(S(C)(=O)=O)C1 [Compound 48]
85 | > 30200 | 0.1 | 11 | 6460 | ~60 | 3390 |  |  | Cc1nc2c(N)cc(N3CCOCC3)nn2c1Nc1cccc(C(F)(F)F)c1C1CCNCC1 [Compound 59]
513 | 12900 | 1.4 | 174 | 1350 | 316 | 5250 |  |  | Cc1nc2c(C(=O)O)cc(N3CCOCC3)nn2c1Cc1cccc(C(F)(F)F)c1C [Compound 9]
 | > 30200 | 1.2 | 16 | 1710 |  | 8680 | ~7 | ~5 | Cc1nc2c(N)cc(N3CCOCC3)nn2c1Nc1cccc(C(F)(F)F)c1CNC(C)CO (stereo not shown) [Compound 56]
> 513 | 776 | 1.1 | 148 | 8910 | > 513 | 8130 |  |  | Cc1c(Cc2c(C(O)CN)nc3c(N)cc(N4CCOCC4)nn23)cccc1C(F)(F)F (stereo not shown) [Compound 91]
~37 | 1700 | 7 | 12 | 275 | 22 | 955 |  |  | Cc1nc2c(-c3cnc[nH]3)cc(N3CCOCC3)nn2c1Nc1cccc(C(F)(F)F)c1CN1CCOCC1 [Compound 41]
> 513 | 1440 | 0.6 | 5 | 347 | > 513 | 2290 |  |  | Cc1nc2c(-c3cnc[nH]3)cc(N3CCOCC3)nn2c1Nc1cccc2c1CNCC2 [Compound 42]
166 | 17000 | 8 | 34 | 20900 | 112 | > 30200 |  |  | Cc1nc2c(N)cc(N3CCOCC3)nn2c1Nc1cccc2c1CCNC2 [Compound 64]
145 | 11500 | 2.1 | 166 |  | ~81 |  |  |  | Cc1nc2c(N)cc(N3CCOCC3)nn2c1Nc1cccc(C(F)(F)F)c1CO [Compound 51]
28 |  |  |  |  | 26 |  |  |  | Cc1c(Cc2c(CO)nc3c(-c4cnc[nH]4)cc(N4CCOCC4)nn23)cccc1C(F)(F)F [Compound 19]
 |  | 1.4 | 47 | 3160 |  |  | 58 | 25 | Cc1nc2c(N)cc(N3CCOCC3)nn2c1Nc1cccc(C(F)(F)F)c1CN1CCC(O)C1 (stereo not shown) [Compound 77]
 |  |  |  |  |  |  | 52 | 41 | Cc1c(Cc2c(CO)nc3c(N)cc(N4CCOCC4)nn23)cccc1C(F)(F)F [Compound 14e]

Second part, the compound before the results:

SMILES | IC50 ([1]; Homo sapiens, PC-3, 1 h) [nM] | Kd (MTOR_h) [nM] | Kd (PIK3Cβ_h) [nM] | Kd (PIK3Cδ_h) [nM] | Kd (PIK3Cα_h) [nM] | IC50 ([2]; Homo sapiens, PC-3, 1 h) [nM] | Kd (PIK3Cγ_h) [nM] | IC50 [1] [nM] | IC50 [2] [nM]
Cc1c(Cc2c(C(C)O)nc3c(N)cc(N4CCOCC4)nn23)cccc1C(F)(F)F (stereo not shown) [Compound 32] | 87 | 22400 | 1.8 | 355 | 14800 | 35 | 12000 |  | 
Cc1nc2c(-c3ccn[nH]3)cc(N3CCOCC3)nn2c1Cc1cccc(C(F)(F)F)c1C [Compound 8] | 263 | 525 | 31 | 891 | 30200 | 204 | 14500 |  | 
Cc1nc2c(N)cc(N3CCOCC3)nn2c1Cc1cccc(C(F)(F)F)c1C [Compound 6] | 123 | > 30200 | 5 | 955 | > 30200 | ~85 | > 30200 |  | 
Cc1c(Cl)cccc1Cc1c(CO)nc2c(-c3c[nH]cn3)cc(N3CCOCC3)nn12 [Compound 67] | 23 | 186 | 0.5 | 17 | 195 | 74 | 324 |  | 
Cc1nc2c(N)cc(N3CCOCC3)nn2c1Cc1cccc(F)c1C1CCN(CCO)CC1 [Compound 107] | 158 | 11500 | 12 | 355 | 11700 | 115 | 8710 |  | 
CCC(C)C(N)C(=O)OCc1nc2c(N)cc(N3CCOCC3)nn2c1Cc1cccc(C(F)(F)F)c1C (stereo not shown) [Compound 81] | > 513 | > 30200 | 5 | 724 | 26900 | 282 | > 30200 |  | 
Cc1nc2c(C(=O)O)cc(C3=CCOCC3)nn2c1Cc1cccc(C(F)(F)F)c1C [Compound 29] | > 513 | > 30200 | 7 | 200 | 3390 | ~513 | 12300 |  | 
Cc1nc2c(N)cc(N3CCOCC3)nn2c1Nc1cccc(C(F)(F)F)c1CN1CC(O)C1 [Compound 52] | 44 | 10700 | 1.9 | 40 | 5750 | 33 | 4790 |  | 
Nc1cc(N2CCOCC2)nn2c(Cc3cccc(C(F)(F)F)c3C3CCN(CCO)CC3)c(CO)nc12 [Compound 105] |  | > 30200 | 1.2 | 537 | 26300 | 85 | > 30200 |  | 
Cc1nc2c(N)cc(N3CCOCC3)nn2c1Nc1ccccc1N1CCOCC1 [Compound 88] |  | 8710 | 12 | 69 | 11200 | 120 | 8320 |  | 
Cc1nc2c(N)cc(N3CCOCC3)nn2c1Nc1cccc(C(F)(F)F)c1CN1CCC(O)C1 (stereo not shown) [Compound 78] |  |  | 1.3 | 35 | 3240 |  |  | 51 | 26
CCc1c(F)cccc1Cc1c(CNCCO)nc2c(N)cc(N3CCOCC3)nn12 [Compound 101] | > 513 |  |  |  |  | > 513 |  |  | 
Cc1nc2c(N)cc(N3CCOCC3)nn2c1Nc1cccc(C(F)(F)F)c1CN1CCC(O)C1 (stereo not shown) [Compound 74] | 30 |  | 2.2 | 31 | 4900 | 26 |  |  | 
Cc1c(Cc2c(CO)nc3c(N)cc(N4CCOCC4)nn23)cccc1C(F)(F)F [Compound 14d] |  |  |  |  |  |  |  | 67 | 29

Source: patent publication US10087187B2, “Imidazopyridazine derivatives as PI3KB inhibitors” (Janssen Pharmaceutica NV, priority 2014, dated 2018)
